For orientation: share remaining means what is left of the initial amount, in per cent. Read a low share remaining as more turnover.

Square brackets hold non-standard residues; d marks the D form. Peptide text beside a SMILES is read from it.

For the first series, the target named is c-di-GMP. Kind of series: Binding affinity of peptides to c-di-GMP by isothermal titration calorimetry (ITC). As to conditions: Table 3, peptides with amino acid substitution, 15°C, pH 8.0, read-out: Dissociation constant. The protocol:
Binding affinities of peptides to c-di-GMP were measured using isothermal titration calorimetry (ITC) on a VP-ITC MicroCalorimeter (MicroCal, Northampton, MA, USA). Peptides, c-di-GMP and buffer (50 mM Tris-HCl, pH 8.0, 100 mM NaCl) were degassed for 15 min prior to filling into sample cell and syringe. All experiments were carried out at a temperature of 15°C. The data were evaluated using ITC Data Analysis in ORIGIN provided by the manufacturer.
With “Ac-DRRRANSADYKGPRRRKAD-NH2 [compound 17]”, the Kd was determined as 140 nM.

Still in this series, the particulars now being: Table 4, deletion of single amino acid, 15°C, pH 8.0, read-out: Dissociation constant.
As for Ac-DRRRFNSAYKGPRRRKAD-NH2 [compound 37], the Kd is 440 nM.

Take Ac-DRRRFNSADYKPRRRKAD-NH2 [compound 38]: the Kd was 1950 nM.

For the compound Ac-DRRRFNSDYKGPRRRKAD-NH2 [compound 36], the Kd came to 340 nM.

As to Ac-DRRRFSADYKGPRRRKAD-NH2 [compound 34], the Kd was determined as 1250 nM.

As to Ac-DRRFNSADYKGPRRRKAD-NH2 [compound 32], the Kd came out at 1040 nM.

For Ac-DRRRFNADYKGPRRRKAD-NH2 [compound 35], the Kd amounted to 440 nM.

For Ac-DRRRNSADYKGPRRRKAD-NH2 [compound 33], the Kd is 1270 nM.

The series is the same for the next values; noted with them: compared to the core sequence / peptide of SEQ ID NO: 12.
Consider “Ac-DRRRFNSADYKAPRRRKAD-NH2 [SEQ ID NO: 24, AC-DRRRFNSADYKAPRRRKAD-NH2]”, for which the “binding affinity to c-di-GMP, in words” value is “significantly reduced binding affinities”.

Turning to “Ac-DRRRNSADYKGPRRRKAD-NH2 [SEQ ID NO: 33, AC-DRRRNSADYKGPRRRKAD-NH2]”, the “binding affinity to c-di-GMP, in words” value is recorded as “Affinity decreased further”.

Take “Ac-DRRRFNSADYKGARRRKAD-NH2 [SEQ ID NO: 25, AC-DRRRFNSADYKGARRRKAD-NH2]”: the “binding affinity to c-di-GMP, in words” value is “sufficiently high to bind c-di-GMP”.

Take “Ac-DRRRFASADYKGPRRRKAD-NH2 [SEQ ID NO: 18, AC-DRRRFASADYKGPRRRKAD-NH2]”: the “binding affinity to c-di-GMP, in words” value is on record as “does not significantly reduce binding affinity”.

Regarding “Ac-DRRRFNSADAKGPRRRKAD-NH2 [SEQ ID NO: 22, AC-DRRRFNSADAKGPRRRKAD-NH2]”, the “binding affinity to c-di-GMP, in words” value was “significantly reduced binding affinities”.

On to “Ac-DRARFNSADYKGPRRRKAD-NH2 [SEQ ID NO: 15, AC-DRARFNSADYKGPRRRKAD-NH2]”, for which the “binding affinity to c-di-GMP, in words” value is “significantly reduced binding affinities”.

Take “Ac-DRRRFNSADYKGPARRKAD-NH2 [SEQ ID NO: 26, AC-DRRRFNSADYKGPARRKAD-NH2]”: the “binding affinity to c-di-GMP, in words” value is “significantly reduced binding affinities”.

In the case of “Ac-DRRRFNSADYKGPRRRAAD-NH2 [SEQ ID NO: 29, AC-DRRRFNSADYKGPRRRAAD-NH2]”, the “binding affinity to c-di-GMP, in words” value is reported as “does not significantly reduce binding affinity”.

Consider “Ac-DRRFNSADYKGPRRRKAD-NH2 [SEQ ID NO: 32, AC-DRRFNSADYKGPRRRKAD-NH2]”, for which the “binding affinity to c-di-GMP, in words” value is “Affinity decreased further”.

As to “Ac-DRRRFNSADYKGPRARKAD-NH2 [SEQ ID NO: 27, AC-DRRRFNSADYKGPRARKAD-NH2]”, the “binding affinity to c-di-GMP, in words” value was “significantly reduced binding affinities”.

Consider “Ac-DRRRFSADYKGPRRRKAD-NH2 [SEQ ID NO: 34, AC-DRRRFSADYKGPRRRKAD-NH2]”, for which the “binding affinity to c-di-GMP, in words” value was “Affinity decreased further”.

Take “Ac-ARRRFNSADYKGPRRRKAD-NH2 [SEQ ID NO: 13, AC-ARRRFNSADYKGPRRRKAD-NH2]”: the “binding affinity to c-di-GMP, in words” value is on record as “significantly reduced binding affinities”.

On to “Ac-DARRFNSADYKGPRRRKAD-NH2 [SEQ ID NO: 14, AC-DARRFNSADYKGPRRRKAD-NH2]”, for which the “binding affinity to c-di-GMP, in words” value is reported as “significantly reduced binding affinities”.

In the case of “Ac-DRRAFNSADYKGPRRRKAD-NH2 [SEQ ID NO: 16, AC-DRRAFNSADYKGPRRRKAD-NH2]”, the “binding affinity to c-di-GMP, in words” value was “sufficiently high to bind c-di-GMP”.

Take “Ac-DRRRFNSADYKGPRRRKAA-NH2 [SEQ ID NO: 31, AC-DRRRFNSADYKGPRRRKAA-NH2]”: the “binding affinity to c-di-GMP, in words” value is on record as “significantly reduced binding affinities”.

For the compound “Ac-DRRRFNSLDYKGPRRRKAD-NH2 [SEQ ID NO: 20, AC-DRRRFNSLDYKGPRRRKAD-NH2]”, the “binding affinity to c-di-GMP, in words” value was “does not significantly reduce binding affinity”.

Consider “Ac-DRRRFNSADYAGPRRRKAD-NH2 [SEQ ID NO: 23, AC-DRRRFNSADYAGPRRRKAD-NH2]”, for which the “binding affinity to c-di-GMP, in words” value is given as “does not significantly reduce binding affinity”.

As for “Ac-DRRRFNSAAYKGPRRRKAD-NH2 [SEQ ID NO: 21, AC-DRRRFNSAAYKGPRRRKAD-NH2]”, the “binding affinity to c-di-GMP, in words” value is on record as “does not significantly reduce binding affinity”.

Turning to “Ac-DRRRFNSADYKGPRRRKLD-NH2 [SEQ ID NO: 30, AC-DRRRFNSADYKGPRRRKLD-NH2]”, the “binding affinity to c-di-GMP, in words” value is listed as “does not significantly reduce binding affinity”.

Take “Ac-DRRRFNAADYKGPRRRKAD-NH2 [SEQ ID NO: 19, AC-DRRRFNAADYKGPRRRKAD-NH2]”: the “binding affinity to c-di-GMP, in words” value is “does not significantly reduce binding affinity”.

Still in this series, the particulars now being: single amino acid deletion.
For the compound “Ac-DRRRFNSDYKGPRRRKAD-NH2 [SEQ ID NO: 36, AC-DRRRFNSDYKGPRRRKAD-NH2]”, the “decrease of c-di-GMP binding affinity compared to the peptide of SEQ ID NO: 12” value (“decrease … of SEQ ID NO: 12” for short) is 2 to 3 fold.

Regarding “Ac-DRRRFNADYKGPRRRKAD-NH2 [SEQ ID NO: 35, AC-DRRRFNADYKGPRRRKAD-NH2]”, the “decrease … of SEQ ID NO: 12” value is listed as 2 to 3 fold.

Turning to “Ac-DRRRFNSADYKPRRRKAD-NH2 [SEQ ID NO: 38, AC-DRRRFNSADYKPRRRKAD-NH2]”, the “decrease … of SEQ ID NO: 12” value is recorded as “about 12 fold”.

Regarding “Ac-DRRRFNSAYKGPRRRKAD-NH2 [SEQ ID NO: 37, AC-DRRRFNSAYKGPRRRKAD-NH2]”, the “decrease … of SEQ ID NO: 12” value fell in the range of 2 to 3 fold.

Tested on in another series: not listed separately
Kind of series: in vitro. Format: in vitro ADME, P. aeruginosa PAO1.
Conditions: not given
On the procedure:
P. aeruginosa PAO1 lysate, which was used to test peptide stability, was prepared by the following procedure. 500 ml of cells grown overnight at 37°C were harvested by centrifugation at 5000 rpm, 10 min at 4°C. Pellets were resuspended in 60 ml PBS (Gibco) and centrifuged at 5000 rpm, 10 min at 4°C. Pellets were resuspended again in 20 ml PBS and centrifuged at 5000 rpm, 10 min at 4°C. Cells were disrupted using high-pressure cell disrupter (Stansted Fluid Power). Cell lysate was separated from cell debris by centrifugation at 14,000 rpm for 20 min at 4°C. Lysate was diluted 10 fold to yield a protein content of about 1 mg/ml. The lysate was used for all experiments described below.
The stability of peptides was tested against P. aeruginosa PAO1 cell lysate. About 1 to 3 µg of peptides were incubated with 5 µl P. aeruginosa PAO1 cell lysate or PBS (untreated controls) at 37°C. After 2 hours, 6 µl of 2x SDS sample buffer was added to the samples and heated to 95°C for 5 min. Samples were analyzed on 10-20% Mini-PROTEAN tris-tricine gels (BIO-RAD #4563115) according to manufacturer's recommended protocol. Band intensities were quantified using the program ImageJ (Schneider, C. A., Rasband, W. S. and Eliceiri, K. W. 2012. NIH Image to ImageJ: 25 years of image analysis. Nature methods. 9: 671-675).
For the compound `C[C@H](NC(=O)[C@H](CO)NC(=O)[C@H](CC(N)=O)NC(=O)[C@H](Cc1ccccc1)NC(=O)[C@H](CCCNC(=N)N)NC(=O)[C@H](CCCNC(=N)N)NC(=O)[C@H](CCCNC(=N)N)NC(=O)[C@H](CC(=O)O)NC(=O)[C@H](N)CCCNC(=N)N)C(=O)N[C@@H](CC(=O)O)C(=O)N[C@@H](Cc1ccc(O)cc1)C(=O)N[C@@H](CCCCN)C(=O)NCC(=O)N1CCC[C@H]1C(=O)N[C@@H](CCCNC(=N)N)C(=O)N[C@@H](CCCNC(=N)N)C(=O)N[C@@H](CCCNC(=N)N)C(=O)N[C@@H](CCCCN)C(=O)N[C@@H](C)C(=O)N[C@@H](CC(=O)O)C(=O)N[C@H](C)C(N)=O` [SEQ ID NO: 42, rDRRRFNSADYKGPRRRKADa-NH2] (H-[dR]DRRRFNSADYKGPRRRKAD[dA]-NH2), the “Remaining peptide after 2 hours” value is reported as “significant improvement”.

Still in this series, the particulars now being: cells or culture medium.
On to `C[C@H](NC(=O)[C@H](CO)NC(=O)[C@H](CC(N)=O)NC(=O)[C@H](Cc1ccccc1)NC(=O)[C@H](CCCNC(=N)N)NC(=O)[C@H](CCCNC(=N)N)NC(=O)[C@H](CCCNC(=N)N)NC(=O)[C@H](N)CC(=O)O)C(=O)N[C@@H](CC(=O)O)C(=O)N[C@@H](Cc1ccc(O)cc1)C(=O)N[C@@H](CCCCN)C(=O)NCC(=O)N1CCC[C@H]1C(=O)N[C@@H](CCCNC(=N)N)C(=O)N[C@@H](CCCNC(=N)N)C(=O)N[C@@H](CCCNC(=N)N)C(=O)N[C@@H](CCCCN)C(=O)N[C@@H](C)C(=O)N[C@H](CC(=O)O)C(=O)O` [compound 39] (H-[dD]RRRFNSADYKGPRRRKA[dD]-OH), for which the amount remaining at 2 h turned out to be 19%.

Regarding `C[C@H](NC(=O)[C@H](CO)NC(=O)[C@H](CC(N)=O)NC(=O)[C@H](Cc1ccccc1)NC(=O)[C@H](CCCNC(=N)N)NC(=O)[C@H](CCCNC(=N)N)NC(=O)[C@H](CCCNC(=N)N)NC(=O)[C@H](CC(=O)O)NC(=O)[C@H](N)CCCNC(=N)N)C(=O)N[C@@H](CC(=O)O)C(=O)N[C@@H](Cc1ccc(O)cc1)C(=O)N[C@@H](CCCCN)C(=O)NCC(=O)N1CCC[C@H]1C(=O)N[C@@H](CCCNC(=N)N)C(=O)N[C@@H](CCCNC(=N)N)C(=O)N[C@@H](CCCNC(=N)N)C(=O)N[C@@H](CCCCN)C(=O)N[C@@H](C)C(=O)N[C@@H](CC(=O)O)C(=O)N[C@H](C)C(=O)O` [compound 40] (H-[dR]DRRRFNSADYKGPRRRKAD[dA]-OH), the fraction remaining at 2 h turned out to be 15%.

Regarding `CC(=O)N[C@H](CCCNC(=N)N)C(=O)N[C@@H](CC(=O)O)C(=O)N[C@@H](CCCNC(=N)N)C(=O)N[C@@H](CCCNC(=N)N)C(=O)N[C@@H](CCCNC(=N)N)C(=O)N[C@@H](Cc1ccccc1)C(=O)N[C@@H](CC(N)=O)C(=O)N[C@@H](CO)C(=O)N[C@@H](C)C(=O)N[C@@H](CC(=O)O)C(=O)N[C@@H](Cc1ccc(O)cc1)C(=O)N[C@@H](CCCCN)C(=O)NCC(=O)N1CCC[C@H]1C(=O)N[C@@H](CCCNC(=N)N)C(=O)N[C@@H](CCCNC(=N)N)C(=O)N[C@@H](CCCNC(=N)N)C(=O)N[C@@H](CCCCN)C(=O)N[C@@H](C)C(=O)N[C@@H](CC(=O)O)C(=O)N[C@H](C)C(N)=O` [compound 41] (Ac-[dR]DRRRFNSADYKGPRRRKAD[dA]-NH2), the fraction remaining at 2 h was 19%.

Source of the values: patent publication EP3335720A1, “C-DI-GMP BINDING PEPTIDES” (Universität Basel, priority 2016, dated 2018).
